According to patent US20040014215A1, “Synchronised arabidopsis cell suspensions and uses thereof” (priority 2000, published 2004):

Key:
Type in all cases: cell-based, Arabidopsis thaliana
CycD3 = assay: Northern expression analysis after aphidicolin synchronisation of MM1 (maximum signal = 100%)
Description: (§1) was analysed following the expression level of known cell cycle regulated genes. Synchronisation was performed as described in Example 2A, with the exception that two 7-day old cultures of the weekly sub-cultured cell suspension (210 ml each) were combined. 40 ml of combined culture was transferred into 200 ml of fresh MSS-medium in each of 10 separate flasks. After incubation for 24 hrs under conditions as described in Example 1, in the presence of 4.16 μg/ml aphidicolin, cells from 5 pooled flasks were washed through a nylon net (mesh size 47 μm) and washed with 2 litre MSS medium and shaken vigorously to remove the aphidicolin. Cells were transferred into a 50 ml plastic tube, washed again with MSS medium and centrifuged at 2500 rpm for 1 min (1075 rcf). Cells were resuspended and combined with the cells from the other 5 flasks similarly washed in a total volume of 300 ml fresh MSS-medium. 30 ml of this cell suspension was then added to 200 ml fresh MSS-medium in each of 10 separate flasks.
(§2) 1) 25 ml for Northern blot (transferred into 50 ml plastic tube, centrifuged at 2500 rpm for 1 min, the supernatant discarded, and the cell pellet shock-frozen in liquid nitrogen before storing in −80° C. freezer)
(§3) Samples were collected at the time point indicated (time of removal of aphidicolin equals time point 0 hrs) and were analysed for expression of the following genes by Northern blot:
(§4) For each probe the maximum hybridisation signal obtained was defined as 100%.

CycD2 = assay: as above
Description: as §1, §2, §3, §4

[1] = tested on: Arabidopsis cell suspension culture MM1; assay: Aphidicolin block/release of MM1: mitotic index (DAPI) and labelling index (BrdU)
Description: Arabidopsis cell suspension culture MM1 (DSM 13563) was used for synchronisation experiments. The suspension culture was maintained by sub-culturing weekly 10 ml into 200 ml of fresh MSS-medium (MS-salt, 3% sucrose, 0.5 mg/l NAA, 0.05 mg/l kinetin) which is cultured in 500 ml narrow neck Erlenmeyer flasks, of which the opening is covered with double layer of aluminium foil and loosely covered with Saran wrap and which are placed on a GYROTORY® Shaker (New Brunswick Scientific). The cell suspension culture was grown under continuous light conditions (24 hrs a day); Philips lamps were used with the specification TLD HF 50W/840; light level is in average 1300 Lux and the cell suspension culture is rotated at 120 rpm at a temperature varying between 23-25° C. To arrest cells reversibly in late G1/early S-phase, cells were blocked with aphidicolin according to Nagata et al. 1992 (with slight modifications), 40 ml of an early stationary phase cell suspension culture was subcultured into 200 ml MSS-medium, 4.16 μg/ml aphidicolin was added to block cells at the end of G1/early S-phase, and the culture was incubated at 23° C., 120 rpm in the conditions as described above for MM1, for a period of 21.5 hrs. To remove aphidicolin, cells were washed through a nylon mesh (mesh size 47 μm) with 11 MSS-medium by vigorously shaking and resuspended in MSS-medium. The cells were vigorously shaken, for a washing time of about 14 min, and then centrifuged at 150Orpm for 1 min (387 rcf) with the brake switched off.

[2] = 0 hrs after aphidicolin removal
[3] = 2 hrs after aphidicolin removal
[4] = 4 hrs after aphidicolin removal
[5] = 6 hrs after aphidicolin removal
[6] = 8 hrs after aphidicolin removal
[7] = 10 hrs after aphidicolin removal
[8] = 12 hrs after aphidicolin removal
[9] = 14 hrs after aphidicolin removal
[10] = 16 hrs after aphidicolin removal
[11] = 18 hrs after aphidicolin removal
[12] = 20 hrs after aphidicolin removal
[13] = 22 hrs after aphidicolin removal
[14] = 24 hrs after aphidicolin removal
[15] = 26 hrs after aphidicolin removal
[16] = 28 hrs after aphidicolin removal
[17] = 30 hrs after aphidicolin removal
[18] = range seen on blocking the cells with aphidicolin
[19] = this experiment (Example 2A), after release from aphidicolin block

C[C@@]1(CO)[C@H](O)CC[C@@]2(C)[C@H]1CC[C@H]1C[C@@H]3C[C@@]12CC[C@]3(O)CO [aphidicolin]
CycD3 % (CycD3; [2]): 12.10%
CycD3 Band intensity (CycD3; [2]): 465
CycD3 % (CycD3; [3]): 14.46%
CycD3 Band intensity (CycD3; [3]): 555
CycD3 % (CycD3; [4]): 43.55%
CycD3 Band intensity (CycD3; [4]): 1674
CycD3 % (CycD3; [5]): 76.31%
CycD3 Band intensity (CycD3; [5]): 2933
CycD3 % (CycD3; [6]): 72.80%
CycD3 Band intensity (CycD3; [6]): 2798
CycD3 % (CycD3; [7]): 77.13%
CycD3 Band intensity (CycD3; [7]): 2964
CycD3 % (CycD3; [8]): 85.55%
CycD3 Band intensity (CycD3; [8]): 3288
CycD3 % (CycD3; [9]): 100.0%
CycD3 Band intensity (CycD3; [9]): 3844
CycD3 % (CycD3; [10]): 79.41%
CycD3 Band intensity (CycD3; [10]): 3052
CycD3 % (CycD3; [11]): 79.09%
CycD3 Band intensity (CycD3; [11]): 3040
CycD3 % (CycD3; [12]): 94.06%
CycD3 Band intensity (CycD3; [12]): 3615
CycD3 % (CycD3; [13]): 59.40%
CycD3 Band intensity (CycD3; [13]): 2283
CycD3 % (CycD3; [14]): 26.53%
CycD3 Band intensity (CycD3; [14]): 1019
CycD3 % (CycD3; [15]): 51.71%
CycD3 Band intensity (CycD3; [15]): 1987
CycD3 % (CycD3; [16]): 64.80%
CycD3 Band intensity (CycD3; [16]): 2490
CycD3 % (CycD3; [17]): 70.93%
CycD3 Band intensity (CycD3; [17]): 2726
CycD2 % (CycD2; [2]): 11.06%
CycD2 Band intensity (CycD2; [2]): 588
CycD2 % (CycD2; [3]): 18.49%
CycD2 Band intensity (CycD2; [3]): 984
CycD2 % (CycD2; [4]): 14.53%
CycD2 Band intensity (CycD2; [4]): 773
CycD2 % (CycD2; [5]): 20.73%
CycD2 Band intensity (CycD2; [5]): 1103
CycD2 % (CycD2; [6]): 21.64%
CycD2 Band intensity (CycD2; [6]): 1151
CycD2 % (CycD2; [7]): 32.02%
CycD2 Band intensity (CycD2; [7]): 1704
CycD2 % (CycD2; [8]): 51.04%
CycD2 Band intensity (CycD2; [8]): 2716
CycD2 % (CycD2; [9]): 77.14%
CycD2 Band intensity (CycD2; [9]): 4105
CycD2 % (CycD2; [10]): 66.51%
CycD2 Band intensity (CycD2; [10]): 3539
CycD2 % (CycD2; [11]): 100.0%
CycD2 Band intensity (CycD2; [11]): 5322
CycD2 % (CycD2; [12]): 83.89%
CycD2 Band intensity (CycD2; [12]): 4464
CycD2 % (CycD2; [13]): 46.62%
CycD2 Band intensity (CycD2; [13]): 2481
CycD2 % (CycD2; [14]): 64.44%
CycD2 Band intensity (CycD2; [14]): 3429
CycD2 % (CycD2; [15]): 68.56%
CycD2 Band intensity (CycD2; [15]): 3648
CycD2 % (CycD2; [16]): 69.98%
CycD2 Band intensity (CycD2; [16]): 3724
CycD2 % (CycD2; [17]): 62.66%
CycD2 Band intensity (CycD2; [17]): 3334
Labelling Index (%) ([1]; 1 h after aphidicolin removal): 23.21%
Mitotic index (%) ([1]; 1 h after aphidicolin removal): 0%
Labelling Index (%) ([1]; 2 h after aphidicolin removal): 41.3%
Mitotic index (%) ([1]; 2 h after aphidicolin removal): 0.5%
Labelling Index (%) ([1]; 3 h after aphidicolin removal): 65.06%
Mitotic index (%) ([1]; 3 h after aphidicolin removal): 0.58%
Labelling Index (%) ([1]; 4 h after aphidicolin removal): 64.13%
Mitotic index (%) ([1]; 4 h after aphidicolin removal): 0.5%
Labelling Index (%) ([1]; 5 h after aphidicolin removal): 50%
Mitotic index (%) ([1]; 5 h after aphidicolin removal): 0.68%
Labelling Index (%) ([1]; 6 h after aphidicolin removal): 18.43%
Mitotic index (%) ([1]; 6 h after aphidicolin removal): 1.88%
Labelling Index (%) ([1]; 7 h after aphidicolin removal): 13.67%
Mitotic index (%) ([1]; 7 h after aphidicolin removal): 2.37%
Labelling Index (%) ([1]; 8 h after aphidicolin removal): 10.32%
Mitotic index (%) ([1]; 8 h after aphidicolin removal): 2.04%
Labelling Index (%) ([1]; 9 h after aphidicolin removal): 8.1%
Mitotic index (%) ([1]; 9 h after aphidicolin removal): 2.63%
Labelling Index (%) ([1]; 10 h after aphidicolin removal): 7.86%
Mitotic index (%) ([1]; 10 h after aphidicolin removal): 2.84%
Labelling Index (%) ([1]; 11 h after aphidicolin removal): 7.65%
Mitotic index (%) ([1]; 11 h after aphidicolin removal): 5.06%
Labelling Index (%) ([1]; 12 h after aphidicolin removal): 6.8%
Mitotic index (%) ([1]; 12 h after aphidicolin removal): 7.96%
Labelling Index (%) ([1]; 13 h after aphidicolin removal): 3.08%
Mitotic index (%) ([1]; 13 h after aphidicolin removal): 11.67%
Labelling Index (%) ([1]; 14 h after aphidicolin removal): 5.05%
Mitotic index (%) ([1]; 14 h after aphidicolin removal): 9.03%
Labelling Index (%) ([1]; 15 h after aphidicolin removal): 3.68%
Mitotic index (%) ([1]; 15 h after aphidicolin removal): 7.86%
Labelling Index (%) ([1]; 16 h after aphidicolin removal): 4.09%
Mitotic index (%) ([1]; 16 h after aphidicolin removal): 5%
Labelling Index (%) ([1]; 17 h after aphidicolin removal): 9.46%
Mitotic index (%) ([1]; 17 h after aphidicolin removal): 2.96%
Labelling Index (%) ([1]; 18 h after aphidicolin removal): 12.96%
Mitotic index (%) ([1]; 18 h after aphidicolin removal): 3.24%
Labelling Index (%) ([1]; 19 h after aphidicolin removal): 10.91%
Mitotic index (%) ([1]; 19 h after aphidicolin removal): 2.06%
MI peak [1, 18]: 10 to 15%
labelling index [1, 18]: 50-65%
LI peak [1, 19]: 65%
MI peak [1, 19]: 12%
